Where two headings read alike, the source gives them in different places.
Columns and labels:
[1] = system: eIF2α phosphorylation (eIF2•GTP•Met-tRNAi ternary complex; HRI activation); test: surrogate dual luciferase eIF2α phosphorylation (ternary complex) assay; assay type: cell-based, human; conditions: for maximal fold induction: Homo sapiens
Text: The dual luciferase expression vector and other plasmids used for these studies were previously described (see, for example, Ziegeler, G. et al. Journal of Biological Chemistry 2010, 285(20), 15408-19). The ternary complex assay, surrogate of eIF2α phosphorylation, has been described elsewhere (see, for example, Chen, T. et al. Nature Chemical Biology 2011, 7(9), 610-6). Briefly, the pBISA vector, which contains seven copies of the tetracycline-regulated transactivator response element (TRE), is flanked on both sides by minimal human cytomegalovirus (CMV) minimal promoters allowing bi-directional transcription and two MCSs (multiple cloning sites). Firefly and renilla luciferases were subcloned into MCS-I and MCS-II, respectively. This plasmid, designated pBISA-DL, transcribes two mRNAs that contain the 90 nucleotide plasmid derived 5′UTR (same sequence in both mRNAs), and the ORF encoding either firefly or renilla luciferase followed by a polyadenylation sequence. This plasmid was further modified by inserting the 5′UTR of ATF-4 mRNA into MCS-I in front of the firefly luciferase mRNA. Transcription from this unit generates an mRNA that contains the firefly luciferase ORF preceded by a 5′UTR composed of 90 nucleotides derived from the plasmid and 267 nucleotides derived from the 5′UTR of ATF-4 mRNA. Transcription from the other unit generates an mRNA that contains the renilla luciferase ORF proceeded only by the 90-nucleotide plasmid-derived sequence in the 5′UTR (pBISA-DL (ATF-4)) (see, for example, Chen, T. et al. Nature Chemical Biology 2011, 7(9), 610-6).
Cells expressing firefly and renilla luciferases were assayed with a dual glow luciferase assay kit, per manufacturer's instruction (Promega Inc., Madison, Wis.). The data calculations were carried out as the ratio of firefly to renilla luciferase signal.
A library of 1900 urea compounds was screened in the surrogate dual luciferase eIF2α phosphorylation (ternary complex) assay. This library was originally assembled and screened for inhibition of sEH by Hammock's group at UC-Davis (see, for example, Chen, T. et al. Nature Chem Biol 2011, 7, 610-616; Ziegeler, G et al. J Biol Chem 2010, 285, 15408-15419). We developed this assay in order to identify compounds that activate HRI, taking advantage of the fact that activated HRI phosphorylates eIF2α thereby reducing the amount of the eIF2•GTP•Met-tRNAi ternary complex that results in inhibition of translation of many mRNAs but paradoxically increases translation of some mRNAs that contain multiple upstream ORF (uORF) in their 5′ untranslated regions (UTRs). In our assay, firefly (F) luciferase mRNA is fused to 5′UTR of activating transcription factor 4 (ATF-4) mRNA that has multiple uORFs while renilla (R) luciferase mRNA is fused to a 5′UTR lacking any uORFs. Compounds that reduce the amount of the ternary complex, such as those activating HRI, would increase F luciferase expression while decreasing the R luciferase expression, resulting in an increased F/R luciferase ratio. To calculate the activity scores, the F/R ratios for every compound-treated wells were normalized to vehicle-treated (DMSO) wells that was arbitrarily set at 1 (F/R=1).

[2] = system: Panc-1; test: cell proliferation (SRB) assay, Panc-1; assay type: cell-based; conditions: Homo sapiens, Table 7
Description: (§1) Cells were seeded in 96-well plates and maintained for 5 days in the presence of 0.5 to 20 μM of individual compound, and cell proliferation was measured by the sulforhodamine B (SRB) assay as described previously (see, for example, Palakurthi, S. S. et al. Cancer Research 2000, 60(11), 2919-2925). Briefly, at the end of a 5-day treatment, cells were fixed in 10% cold trichloroacetic acid. Cell number was estimated by measuring the remaining bound dye of sulforhodamine B after washing. The percentage of growth was calculated by using the equation: 100×[(T−T0)/(C−T0)], where T and C represent the absorbance in treated and control cultures at Day 5, and T0 at time zero, respectively. If T is less than T0, cell death has occurred and can be calculated from 100×[(T−T0)/T0].
The compounds shown in Table 7 were evaluated using for activation of HRI using the dual luciferase surrogate eIF2α phosphorylation assay (see, for example, Chen, T. et al. Nature Chem Biol 2011, 7, 610-616) and for inhibition of cell proliferation using the SRB assay (see, for example, Palakurthi, S. S. et al. Cancer Res 2000, 60, 2919-2925) as described above.

[3] = system: CRL-2813 human melanoma cancer cells; test: cell proliferation (SRB) assay, CRL-2813; assay type: cell-based
Description: as §1

[4] = Homo sapiens, CRL2813, SRB assay, Table 7, read-out: IC50 CRL-2813
[5] = cell proliferation assay, Table 2, cell line not named, read-out: IC50
[6] = surrogate eIF2α phosphorylation assay, Table 4, read-out: Emax (F/R)
[7] = Homo sapiens, CRL2813, cell proliferation assay, Table 4, cell line not named, read-out: IC50

SMILES | maximal fold induction ([1]; DMSO = 1, maximum tested concentration 20 μM, read-out: Emax: Maximum activity of compound expressed as fold over vehicle) | C3X: Calculated concentration of compound that will cause three-fold increase in the surrogate eIF2α phosphorylation assay ([1]; Table 7) [µM] | IC50 [2] [µM] | IC50 [3, 4] [µM] | Emax (F/R) ([1]; 7.5 μM compound) | Emax (F/R) ([1]; 15 μM compound) | Emax (F/R) ([1]; 30 μM compound) | IC50 [3, 5] [µM] | maximal fold induction [1, 6] | IC50 [3, 7] [µM]
O=C(Nc1cccc(OC(F)(F)F)c1)N[C@H]1CC[C@H](Oc2ccc(OC(F)(F)F)cc2)CC1 | 14 | 1.3 | 3 | 1.2 |  |  |  |  |  | 
N#Cc1ccc(NC(=O)N[C@H]2CC[C@H](Oc3ccc(C#N)cc3)CC2)cc1 |  |  | 10 | 10 |  |  |  |  |  | 
N#Cc1ccc(O[C@H]2CC[C@H](NC(=O)Nc3cccc(C#N)c3)CC2)cc1 |  |  | > 10 | 7 |  |  |  |  |  | 
O=C(Nc1cccc(Br)c1)N[C@H]1CC[C@H](OCc2c(F)cccc2F)CC1 [II-3m] |  |  |  |  | 1.07 | 1.04 | 0.98 | > 20 |  | 
O=C(Nc1ccccc1Br)N[C@H]1CC[C@H](OCc2c(F)cccc2F)CC1 [II-3o] |  |  |  |  | 0.96 | 0.99 | 0.96 | > 20 |  | 
O=C(Nc1ccc(Br)cc1)N[C@H]1CC[C@H](OCc2c(F)cccc2F)CC1 [II-3p] |  |  |  |  | 0.76 | 0.85 | 0.73 | > 20 |  | 
O=C(Nc1cccc(I)c1)N[C@H]1CC[C@H](OCc2c(F)cccc2F)CC1 [II-4m] |  |  |  |  | 0.69 | 0.75 | 0.72 | > 20 |  | 
O=C(Nc1ccccc1I)N[C@H]1CC[C@H](OCc2c(F)cccc2F)CC1 [II-4o] |  |  |  |  | 0.81 | 0.74 | 0.81 | > 20 |  | 
O=C(Nc1ccc(I)cc1)N[C@H]1CC[C@H](OCc2c(F)cccc2F)CC1 [II-4p] |  |  |  |  | 0.76 | 0.82 | 0.67 | > 20 |  | 
O=C(Nc1cccc(C(F)(F)F)c1)N[C@H]1CC[C@H](OCc2c(F)cccc2F)CC1 [II-5m] |  |  |  |  | 1.13 | 1.15 | 1.11 | > 20 |  | 
O=C(Nc1ccccc1C(F)(F)F)N[C@H]1CC[C@H](OCc2c(F)cccc2F)CC1 [II-5o] |  |  |  |  | 0.95 | 0.80 | 0.64 | > 20 |  | 
O=C(Nc1ccc(C(F)(F)F)cc1)N[C@H]1CC[C@H](OCc2c(F)cccc2F)CC1 [II-5p] |  |  |  |  | 0.91 | 0.79 | 0.85 | > 20 |  | 
O=C(Nc1ccccc1OC(F)(F)F)N[C@H]1CC[C@H](OCc2c(F)cccc2F)CC1 [II-6o] |  |  |  |  | 0.93 | 0.93 | 0.76 | > 20 |  | 
O=C(Nc1ccc(OC(F)(F)F)cc1)N[C@H]1CC[C@H](OCc2c(F)cccc2F)CC1 [II-6p] |  |  |  |  | 0.81 | 0.80 | 0.98 | > 20 |  | 
Cc1cccc(NC(=O)N[C@H]2CC[C@H](OCc3c(F)cccc3F)CC2)c1 [II-7m] |  |  |  |  | 0.82 | 0.89 | 0.81 | > 20 |  | 
Cc1ccccc1NC(=O)N[C@H]1CC[C@H](OCc2c(F)cccc2F)CC1 [II-7o] |  |  |  |  | 0.78 | 0.79 | 0.83 | > 20 |  | 

SMILES | maximal fold induction ([1]; DMSO = 1, maximum tested concentration 20 μM, read-out: Emax: Maximum activity of compound expressed as fold over vehicle) | C3X: Calculated concentration of compound that will cause three-fold increase in the surrogate eIF2α phosphorylation assay ([1]; Table 7) [µM] | IC50 [2] [µM] | IC50 [3, 4] [µM] | Emax (F/R) ([1]; 7.5 μM compound) | Emax (F/R) ([1]; 15 μM compound) | Emax (F/R) ([1]; 30 μM compound) | IC50 [3, 5] [µM] | maximal fold induction [1, 6] | IC50 [3, 7] [µM]
Cc1ccc(NC(=O)N[C@H]2CC[C@H](OCc3c(F)cccc3F)CC2)cc1 [II-7p] |  |  |  |  | 0.81 | 0.81 | 0.77 | > 20 |  | 
COc1cccc(NC(=O)N[C@H]2CC[C@H](OCc3c(F)cccc3F)CC2)c1 [II-8m] |  |  |  |  | 0.84 | 0.97 | 0.74 | > 20 |  | 
COc1ccccc1NC(=O)N[C@H]1CC[C@H](OCc2c(F)cccc2F)CC1 [II-8o] |  |  |  |  | 0.94 | 0.88 | 0.84 | > 20 |  | 
COc1ccc(NC(=O)N[C@H]2CC[C@H](OCc3c(F)cccc3F)CC2)cc1 [II-8p] |  |  |  |  | 0.74 | 0.71 | 0.68 | > 20 |  | 
O=C(Nc1cccc([N+](=O)[O-])c1)N[C@H]1CC[C@H](OCc2c(F)cccc2F)CC1 [II-9m] |  |  |  |  | 0.96 | 0.76 | 0.94 | > 20 |  | 
O=C(Nc1ccccc1[N+](=O)[O-])N[C@H]1CC[C@H](OCc2c(F)cccc2F)CC1 [II-9o] |  |  |  |  | 0.96 | 0.90 | 0.74 | > 20 |  | 
O=C(Nc1ccc([N+](=O)[O-])cc1)N[C@H]1CC[C@H](OCc2c(F)cccc2F)CC1 [II-9p] |  |  |  |  | 0.87 | 0.83 | 0.83 | > 20 |  | 
CSc1cccc(NC(=O)N[C@H]2CC[C@H](OCc3c(F)cccc3F)CC2)c1 [II-10m] |  |  |  |  | 1.01 | 0.73 | 1.06 | > 20 |  | 
CSc1ccccc1NC(=O)N[C@H]1CC[C@H](OCc2c(F)cccc2F)CC1 [II-10o] |  |  |  |  | 0.82 | 0.90 | 0.83 | > 20 |  | 
CSc1ccc(NC(=O)N[C@H]2CC[C@H](OCc3c(F)cccc3F)CC2)cc1 [II-10p] |  |  |  |  | 0.94 | 0.98 | 1.07 | > 20 |  | 
O=C(Nc1ccccc1)N[C@H]1CC[C@H](OCc2c(F)cccc2F)CC1 [II-11] |  |  |  |  | 0.89 | 0.88 | 0.81 | > 20 |  | 
O=C(Nc1cccc(C(F)(F)F)c1)NC1CCCCC1 [III-1, 1-Cyclohexyl-3-(3-(trifluoromethyl)phenyl)urea] |  |  |  |  |  |  |  |  | 1.87 | 13.2 ± 2.3
O=C(Nc1cccc(C(F)(F)F)c1)NC1CCC(O)CC1 (stereo not shown) [III-2, 1-(4-Hydroxycyclohexyl)-3-(3-(trifluoromethyl)phenyl)urea] |  |  |  |  |  |  |  |  | 0.89 | > 20
COC1CCC(NC(=O)Nc2cccc(C(F)(F)F)c2)CC1 (stereo not shown) [III-3, 1-(4-Methoxycyclohexyl)-3-(3-(trifluoromethyl)phenyl)urea] |  |  |  |  |  |  |  |  | 1.16 | > 20
O=C(Nc1cccc(C(F)(F)F)c1)NC1CCCC(Oc2ccc(C(F)(F)F)cc2)C1 (stereo not shown) [III-6, 1-(3-(4-(Trifluoromethyl)phenoxy)cyclohexyl)-3-(3-(trifluoromethyl)phenyl)urea] |  |  |  |  |  |  |  |  | 4.52 | 3.8 ± 1.2

Source: patent US20160318856A1, “Substituted Urea eIF2alpha Kinase Activators” (THE BRIGHAM AND WOMEN'S HOSPITAL, INC., priority 2013, published 2016)
